Data reported in PubChem BioAssay AID1963970 (Molecular Pharmacology Branch, DTP, NCI, 2024).
pIC50: −log10 of the molar value.

Test system: 931267-113-T-J1-PDC multicell spheroid viability
Experiment: Anticancer human tumor 931267-113-T-J1-PDC patient-derived colon adenocarcinoma cell line growth inhibition [PI3K]
Conditions: for pIC50: curve of first compound; for viability, T/C: stronger effect = lower value
From the text: Combinatorial screen of targeted agents with the PI3K inhibitors inavolisib, alpelisib, duvelisib, and copanlisib in multi-cell type tumor spheroids
A high-throughput screen of multi-cell type tumor spheroids was designed to identify active combinations of targeted small molecules and PI3K pathway inhibitors. Complex spheroids include a stromal component modeled by human endothelial cells (HUVEC) and fibroblasts modeled by human mesenchymal stem cells (MSCs). The concentration ranges selected for each drug and investigational agent were based upon clinically achievable concentrations if the clinical Cmax of the agent was known.
Compounds. The drugs and investigational agents: inavolisib (NSC800729), alpelisib (NSC765974), duvelisib (NSC772469), copanlisib (NSC816437), ipatasertib (NSC767898), afuresertib (NSC778305), talazoparib (NSC767125), sapanisertib (NSC764658), selumetinib (NSC741078), tovorafenib (DAY101, NSC766906), vemurafenib (NSC761431), ravoxertinib (NSC781343), sotorasib (NSC818433), MRTX1133 (NSC 836407), abemaciclib (NSC 768073), palbociclib (NSC758247), venetoclax (NSC 766270), SY5609 (NSC837396), enzalutamide (NSC755605), and darolutamide (NSC825331), were obtained from the National Cancer Institute (NCI) Developmental Therapeutics Program Chemical Repository. The FDA-approved anticancer drug set is available from the NCI Developmental Therapeutics Program. […] The stock solutions were prepared in dimethyl sulfoxide (DMSO, Sigma-Aldrich, St. Louis, MO, cat. D2650) at 800-fold the tested concentration and stored at -70 degrees C prior to their use. All drugs and investigational agents were tested over a range starting from a high concentration at or near the clinical Cmax and decreasing in half-log increments. If the clinical Cmax for an agent had not been determined, the highest concentration tested was 10 microM.
Cell Culture. All cells were maintained in an incubator at 37 degrees C and 5% CO2 with 95% humidity. The PDC lines were cultured according to standard operating procedures established by the NCI PDMR (https://pdmr.cancer.gov/sops/default.htm). All PDCs were thawed and cultured in Matrigel-coated flasks prepared with a working solution of 1X Ham's F-12 nutrient mix, without supplementation (Invitrogen, Waltham, MA, cat. 11765054), 100 U/mL penicillin-streptomycin (Invitrogen, cat. 15140122), and 2.5% Matrigel (Corning Inc., Corning, NY, cat. 354248) for the first three passages. The 354836-022-R-J1-PDC, 475296-252-R-J1-PDC, and 997726-040-R-J2-PDC lines were cultured in 6A media, which includes advanced DMEM/F-12 (Thermo Fisher Scientific, cat. 12634028), 10 mM HEPES (Thermo Fisher Scientific, cat. 15630080), 1X GlutaMAX supplement (Thermo Fisher Scientific, cat. 35050061), 0.1 mg/mL primocin (InvivoGen, San Diego, CA, cat. ant-pm-2), 10% defined fetal bovine serum, heat inactivated (HyClone Laboratories Inc., Logan, UT, cat. SH30070.03HI), 50% L-WRN conditioned media (ATCC, cat. CRL-3276), 1.25 mM N-Acetyl-L-cysteine (Sigma-Aldrich, cat. A9165), 10 mM nicotinamide (Sigma-Aldrich, cat. N0636), 1X B-27 supplement (Thermo Fisher Scientific, cat. 17504044), 1X N-2 supplement (Thermo Fisher Scientific, cat. 17502048), and 10 microM Y-27632 dihydrochloride (Tocris Bioscience, Bristol, United Kingdom, cat. 1254). The 624824-186-R-J2-PDC line was cultured in 6C/Colon 1B media, which includes all 6A media components plus 50 ng/mL human EGF recombinant protein (Thermo Fisher Scientific, cat. PHG0311). […]

[1] = second compound 0.0316 µM, first compound 0.0316 µM
[2] = second compound 0.0316 µM, first compound 0.1 µM
[3] = second compound 0.0316 µM, first compound 0.316 µM
[4] = second compound 0.0316 µM, first compound 1 µM
[5] = second compound 0.0316 µM, first compound 3.16 µM
[6] = second compound 0.0316 µM, first compound 10 µM
[7] = second compound 0.1 µM, first compound 0.0316 µM
[8] = second compound 0.1 µM, first compound 0.1 µM
[9] = second compound 0.1 µM, first compound 0.316 µM
[10] = second compound 0.1 µM, first compound 1 µM
[11] = second compound 0.1 µM, first compound 3.16 µM
[12] = second compound 0.1 µM, first compound 10 µM
[13] = second compound 0.316 µM, first compound 0.0316 µM
[14] = second compound 0.316 µM, first compound 0.1 µM
[15] = second compound 0.316 µM, first compound 0.316 µM
[16] = second compound 0.316 µM, first compound 1 µM
[17] = second compound 0.316 µM, first compound 3.16 µM
[18] = second compound 0.316 µM, first compound 10 µM
[19] = second compound 1 µM, first compound 0.0316 µM
[20] = second compound 1 µM, first compound 0.1 µM
[21] = second compound 1 µM, first compound 0.316 µM
[22] = second compound 1 µM, first compound 1 µM
[23] = second compound 1 µM, first compound 3.16 µM
[24] = second compound 1 µM, first compound 10 µM
[25] = second compound 3.16 µM, first compound 0.0316 µM
[26] = second compound 3.16 µM, first compound 0.1 µM
[27] = second compound 3.16 µM, first compound 0.316 µM
[28] = second compound 3.16 µM, first compound 1 µM
[29] = second compound 3.16 µM, first compound 3.16 µM
[30] = second compound 3.16 µM, first compound 10 µM
[31] = second compound 10 µM, first compound 0.0316 µM
[32] = second compound 10 µM, first compound 0.1 µM
[33] = second compound 10 µM, first compound 0.316 µM
[34] = second compound 10 µM, first compound 1 µM
[35] = second compound 10 µM, first compound 3.16 µM
[36] = second compound 10 µM, first compound 10 µM
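Further: viability read 7 days after compound addition.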

## CNC(=O)c1ccc(N2C(=S)N(c3ccc(C#N)c(C(F)(F)F)c3)C(=O)C2(C)C)cc1F + Cc1nc(NC(=O)N2CCCC2C(N)=O)sc1-c1ccnc(C(C)(C)C(F)(F)F)c1
Second compound 0.0316 µM
  pIC50: < 5.00
Second compound 0.1 µM
  pIC50: < 5.00
Second compound 0.316 µM
  pIC50: < 5.00
Second compound 1 µM
  pIC50: < 5.00
Second compound 3.16 µM
  pIC50: < 5.00
Second compound 10 µM
  pIC50: 5.44
[1]
  viability, T/C: 112%
[2]
  viability, T/C: 85%
[3]
  viability, T/C: 95.4%
[4]
  viability, T/C: 105%
[5]
  viability, T/C: 101%
[6]
  viability, T/C: 93.5%
[7]
  viability, T/C: 94%
[8]
  viability, T/C: 105%
[9]
  viability, T/C: 98.7%
[10]
  viability, T/C: 105%
[11]
  viability, T/C: 99.5%
[12]
  viability, T/C: 98.5%
[13]
  viability, T/C: 92.9%
[14]
  viability, T/C: 75.9%
[15]
  viability, T/C: 87.9%
[16]
  viability, T/C: 80.5%
[17]
  viability, T/C: 89.3%
[18]
  viability, T/C: 76.5%
[19]
  viability, T/C: 89.6%
[20]
  viability, T/C: 66.4%
[21]
  viability, T/C: 73.9%
[22]
  viability, T/C: 85.1%
[23]
  viability, T/C: 83.5%
[24]
  viability, T/C: 76.2%
[25]
  viability, T/C: 71.2%
[26]
  viability, T/C: 64.5%
[27]
  viability, T/C: 73.8%
[28]
  viability, T/C: 62.5%
[29]
  viability, T/C: 77.2%
[30]
  viability, T/C: 67.5%
[31]
  viability, T/C: 59.7%
[32]
  viability, T/C: 54.2%
[33]
  viability, T/C: 56.2%
[34]
  viability, T/C: 53.3%
[35]
  viability, T/C: 56.4%
[36]
  viability, T/C: 42.2%

## C#Cc1c(F)ccc2cc(O)cc(-c3ncc4c(N5CC6CCC(C5)N6)nc(OCC56CCCN5CC(F)C6)nc4c3F)c12 (stereo unspecified) + CC(Nc1ncnc2nc[nH]c12)c1cc2cccc(Cl)c2c(=O)n1-c1ccccc1
Second compound 0.0316 µM
  pIC50: 6.20
Second compound 0.1 µM
  pIC50: 6.24
Second compound 0.316 µM
  pIC50: 6.18
Second compound 1 µM
  pIC50: 6.17
Second compound 3.16 µM
  pIC50: 6.42
Second compound 10 µM
  pIC50: 6.65
[1]
  viability, T/C: 96.4%
[2]
  viability, T/C: 74%
[3]
  viability, T/C: 57.6%
[4]
  viability, T/C: 45.7%
[5]
  viability, T/C: 32.6%
[6]
  viability, T/C: 22.5%
[7]
  viability, T/C: 105%
[8]
  viability, T/C: 78.1%
[9]
  viability, T/C: 56.6%
[10]
  viability, T/C: 45.4%
[11]
  viability, T/C: 29.5%
[12]
  viability, T/C: 24.5%
[13]
  viability, T/C: 90.9%
[14]
  viability, T/C: 72.9%
[15]
  viability, T/C: 61.4%
[16]
  viability, T/C: 43.4%
[17]
  viability, T/C: 33.6%
[18]
  viability, T/C: 23.2%
[19]
  viability, T/C: 89.1%
[20]
  viability, T/C: 78.6%
[21]
  viability, T/C: 57.9%
[22]
  viability, T/C: 42.1%
[23]
  viability, T/C: 37.3%
[24]
  viability, T/C: 21.2%
[25]
  viability, T/C: 87.3%
[26]
  viability, T/C: 70.3%
[27]
  viability, T/C: 52.1%
[28]
  viability, T/C: 36.1%
[29]
  viability, T/C: 28.4%
[30]
  viability, T/C: 17.6%
[31]
  viability, T/C: 91.1%
[32]
  viability, T/C: 63.1%
[33]
  viability, T/C: 45%
[34]
  viability, T/C: 27.1%
[35]
  viability, T/C: 22.7%
[36]
  viability, T/C: 12%

## CCN1CCN(Cc2ccc(Nc3ncc(F)c(-c4cc(F)c5nc(C)n(C(C)C)c5c4)n3)nc2)CC1 + COc1c(OCCCN2CCOCC2)ccc2c3n(c(=NC(=O)c4cnc(N)nc4)nc12)CCN3
Second compound 0.00316 µM
  pIC50: < 6.00
Second compound 0.01 µM
  pIC50: < 6.00
Second compound 0.0316 µM
  pIC50: < 6.00
Second compound 0.1 µM
  pIC50: 7.05
Second compound 0.316 µM
  pIC50: > 8.50
Second compound 1 µM
  pIC50: > 8.50
Second compound 0.00316 µM, first compound 0.00316 µM
  viability, T/C: 91.3%
Second compound 0.00316 µM, first compound 0.01 µM
  viability, T/C: 105%
Second compound 0.00316 µM, first compound 0.0316 µM
  viability, T/C: 97.3%
Second compound 0.00316 µM, first compound 0.1 µM
  viability, T/C: 98.7%
Second compound 0.00316 µM, first compound 0.316 µM
  viability, T/C: 94.2%
Second compound 0.00316 µM, first compound 1 µM
  viability, T/C: 81.7%
Second compound 0.01 µM, first compound 0.00316 µM
  viability, T/C: 103%
Second compound 0.01 µM, first compound 0.01 µM
  viability, T/C: 89.4%
Second compound 0.01 µM, first compound 0.0316 µM
  viability, T/C: 87.6%
Second compound 0.01 µM, first compound 0.1 µM
  viability, T/C: 90.2%
Second compound 0.01 µM, first compound 0.316 µM
  viability, T/C: 89%
Second compound 0.01 µM, first compound 1 µM
  viability, T/C: 67%
Second compound 0.0316 µM, first compound 0.00316 µM
  viability, T/C: 84.3%
Second compound 0.0316 µM, first compound 0.01 µM
  viability, T/C: 79.1%
[1]
  viability, T/C: 76.8%
[2]
  viability, T/C: 70.8%
[3]
  viability, T/C: 67.2%
[4]
  viability, T/C: 55.5%
Second compound 0.1 µM, first compound 0.00316 µM
  viability, T/C: 66.3%
Second compound 0.1 µM, first compound 0.01 µM
  viability, T/C: 65.6%
[7]
  viability, T/C: 57.2%
[8]
  viability, T/C: 47.5%
[9]
  viability, T/C: 49.2%
[10]
  viability, T/C: 50.8%
Second compound 0.316 µM, first compound 0.00316 µM
  viability, T/C: 53.5%
Second compound 0.316 µM, first compound 0.01 µM
  viability, T/C: 44.7%
[13]
  viability, T/C: 39.6%
[14]
  viability, T/C: 37.3%
[15]
  viability, T/C: 41.6%
[16]
  viability, T/C: 45%
Second compound 1 µM, first compound 0.00316 µM
  viability, T/C: 33.6%
Second compound 1 µM, first compound 0.01 µM
  viability, T/C: 35.6%
[19]
  viability, T/C: 25.3%
[20]
  viability, T/C: 32.3%
[21]
  viability, T/C: 35.9%
[22]
  viability, T/C: 36.7%
